Numbered stars: 1 amine (or outer) side, 2 acyl side, 3 side chain; on linkers, the order of the positions; unused ones are H or OH. Bridge positions count the residues as written; N and C are the ends. Square brackets hold non-standard residues; d marks the D form. Peptide text beside a SMILES is read from it. * marks the point of attachment. Isoorotoyl = O=C(c1c[nH]c(=O)[nH]c1=O)*; Nicotinoyl(6-OMe) = COc1ccc(C(=O)*)cn1; 2Thenoyl(5-Cl) = O=C(c1ccc(Cl)s1)*; Phenoxyacetyl = O=C(COc1ccccc1)*; Cysteamide = C(CS[*:3])N[*:1]; X3 = O=C(Cc1c[nH]c2ccccc12)*; Orn = NCCC[CH](N)C(=O)O; Bz = O=C(c1ccccc1)*; Mpa = O=C(O)CCS
Molecular target: T1, thrombin (Homo sapiens, UniProt P00734)
T1 construct: consists of two polypeptide chains of 36 (light chain) and 259 amino acid
Experiment: Thrombin inhibition screen of crude macrocycle reactions (residual thrombin activity, fluorogenic substrate Z-Gly-Gly-Arg-AMC)
Assay type: biochemical
Details: 10 µM macrocycle concentration; for percent residual thrombin activity: crude reactions, Library 1a-l, scaffold AA1-AA2-AA3 combined with 1-16 or '-'; for % thrombin activity, Original screen / % thrombin activity, Repeat screen: macrocycles containing acid 14, crude reaction; for % thrombin activity, Repeat screen: replicate reaction and screen
Description: As a proof-of-concept, we screened the macrocycle library for inhibitors against thrombin, which is the central blood coagulation protease and an important therapeutic target. We conducted the screen for thrombin-inhibiting macrocycles in 384-well reaction plates. Briefly, each well contained a unique macrocycle (10 μM), 5 μL of thrombin (2 nM final conc.), and subsequently, 5 µL of a fluorogenic substrate to measure the residual thrombin activity and the extent of protease inhibition.
The assays were performed in 384-well plates using Tris buffer at pH 7.4 (100 mM Tris-Cl, 150 mM NaCl, 10 mM MgCl2, 1 mM CaCl2, 0.1% w/v BSA, 0.01% v/v Triton-X100, and 0.6% v/v DMSO) using thrombin at a final concentration of 2 nM and the fluorogenic substrate Z-Gly-Gly-Arg-AMC at a final concentration of 50 μM. Thrombin (5 μL, 6 nM) in the Tris-Cl buffer described above was added to each peptide using a BioTek MultiFlo microplate dispenser, and incubated for 10 min at room temperature. […] Data was collected and exported using the Tecan Infinite M200 Pro instrument software. […] For the negative controls (20 wells containing DMSO but no macrocycle), an average slope was calculated. The percent of thrombin inhibition was calculated by dividing the slopes and multiplying the results by 100.

Row | SMILES | percent residual thrombin activity [%] | % thrombin activity, Original screen [%] | % thrombin activity, Repeat screen [%] | also measured
1 | O=C(NCCCC[C@@H]1NC(=O)[C@@H](Cc2c[nH]c3ccccc23)NC(=O)[C@H]2CCCN(C2)C(=O)CCSSCCNC1=O)c1c[nH]c(=O)cn1 [B4-W-D1/9] | 96.1174 |  |  | 
2 | O=C(NCCC[C@@H]1NC(=O)[C@H](CO)NC(=O)[C@@H]2CCCN2C(=O)CCSSCCNC1=O)c1c[nH]c(=O)[nH]c1=O [B1-s-D2/11] ([Mpa]PS[Orn](Isoorotoyl)-Cysteamide; disulfide 1-C) | 111.409 |  |  | 
3 | O=C1CCSSCCNC(=O)[C@H](Cc2ccc(O)cc2)NC(=O)[C@H](CCCNC(=O)c2ccc(Cl)s2)NC(=O)C2(CC2)CN1 [B6-D2-Y/14] | 95.7216 |  |  | 
4 | O=C1CCSSCCNC(=O)C2CC(NC(=O)c3ccc(Cl)s3)CN2C(=O)C2CCCN(C2)C(=O)C(Cc2ccccc2)N1 (stereo not shown) [X f B4 D5] |  | 91.9 | 99.4 | 
5 | Cc1nnsc1C(=O)NCCC[C@@H]1NC(=O)c2ccc(cc2)CNC(=O)[C@H](CO)NC(=O)CCSSCCNC1=O [S-B3-D2/15] | 116.562 |  |  | 
6 | O=C1CCSSCCNC(=O)[C@H](Cc2ccc(O)cc2)NC(=O)c2cccc(c2)CNC(=O)[C@H](CCCNC(=O)c2ccc(Cl)s2)N1 [X D2 B5 Y] |  | 78.2 | 66.2 | % thrombin activity, Original screen (listed as X D2 B5 y): 82.3%; % thrombin activity, Repeat screen (listed as X D2 B5 y): 75.1%
7 | NC(=O)CCC1NC(=O)C2CCCN(C2)C(=O)C(CNC(=O)c2ccc(Cl)s2)NC(=O)CCSSCCNC1=O (stereo not shown) [X D3 B4 Q] |  | 94.4 | 90.2 | 
8 | C[C@H]1NC(=O)CCSSCCNC(=O)[C@H]2CCCN(C2)C(=O)[C@H](CCCCNC(=O)c2ccc(Cl)s2)NC1=O [X a D1 B4] |  | 107.0 | 109.1 | 
9 | O=C1CCSSCCNC(=O)C2CC(NC(=O)c3ccc(Cl)s3)CN2C(=O)CCNC(=O)C(CO)N1 (stereo not shown) [X S B2 D5] |  | 96.6 | 90.6 | 
10 | O=C1CCSSCCNC(=O)[C@H]2CCCN(C2)C(=O)[C@H](CCCCNC(=O)c2ccc(Cl)s2)NC(=O)[C@H](Cc2ccc(O)cc2)N1 [Y-D1-B4/14] | 97.8547 |  |  | 
11 | CC(C)[C@@H]1NC(=O)[C@H](CCCCNC(=O)c2c[nH]c(=O)cn2)NC(=O)CCSSCCNC(=O)C2(CC2)CNC1=O [D1-V-B6/9] | 106.409 |  |  | 
12 | CC(C)C[C@@H]1NC(=O)[C@H]2CCCN(C2)C(=O)CCSSCCNC(=O)[C@@H](CNC(=O)c2ccc(Cl)s2)NC1=O [X B4 L D4] |  | 97.0 | 93.7 | 
13 | O=C1CCSSCCNC(=O)[C@H](Cc2ccccc2)NC(=O)[C@H]2CCCN(C2)C(=O)[C@H](CNC(=O)c2ccc(Cl)s2)N1 [X D3 B4 F] |  | 66.8 | 62.9 | 
14 | O=C1CCSSCCNC(=O)[C@H](Cc2ccc(O)cc2)NC(=O)C2(CC2)CNC(=O)[C@H](CNC(=O)c2ccc(Cl)s2)N1 [X D3 B6 Y] |  | 70.6 | 70.5 | 
15 | CC(C)[C@H]1NC(=O)C2(CCN(C(=O)c3ccc(Cl)s3)CC2)NC(=O)CCSSCCNC(=O)c2cccc(c2)CNC1=O [X D6 v B5] |  | 84.9 | 90.5 | % thrombin activity, Original screen (listed as X D6 V B5): 98.9%; % thrombin activity, Repeat screen (listed as X D6 V B5): 103.9%
16 | COc1ccc(C(=O)NCCCC[C@@H]2NC(=O)[C@@H]3CCCN3C(=O)CCSSCCNC(=O)[C@@H](C(C)C)NC2=O)cn1 [B1-D1-v/10] ([Mpa]PK(Nicotinoyl(6-OMe))[dV]-Cysteamide; disulfide 1-C) | 107.398 |  |  | 
17 | NC(=O)CCC1NC(=O)C2CCCN2C(=O)CCSSCCNC(=O)C(CCCNC(=O)c2ccc(Cl)s2)NC1=O (stereo not shown) [X B1 Q D2] ([Mpa]PQ[Orn](2Thenoyl(5-Cl))-Cysteamide; disulfide 1-C; configuration not given here) |  | 92.6 | 89.5 | 
18 | O=C1CCSSCCNC(=O)[C@@H](Cc2ccccc2)NC(=O)[C@H]2CCCN(C2)C(=O)[C@H](CCCNC(=O)c2c[nH]c(=O)cn2)N1 [D2-B4-f/9] | 109.579 |  |  | 
19 | CC(C)CC(=O)NCCC[C@@H]1NC(=O)CCSSCCNC(=O)[C@H](C(C)C)NC(=O)[C@H]2CCCN(C2)C1=O [D2-B4-V/8] | 110.86 |  |  | 
20 | NC(=O)CC[C@@H]1NC(=O)CCSSCCNC(=O)C2(CCN(C(=O)c3ccc(Cl)s3)CC2)NC(=O)c2ccc(cc2)CNC1=O [X Q B3 D6] |  | 87.5 | 88.0 | 
21 | CC(C)C[C@@H]1NC(=O)CCNC(=O)CCSSCCNC(=O)[C@H](CCCNC(=O)c2ccco2)NC1=O [B2-L-D2/16] | 111.509 |  |  | 

Row | SMILES | percent residual thrombin activity [%] | % thrombin activity, Original screen [%] | % thrombin activity, Repeat screen [%] | also measured
22 | CC(C)C[C@@H]1NC(=O)CCSSCCNC(=O)[C@H](CCCN)NC(=O)[C@H]2CCCN(C2)C1=O [L-B4-D2/-] | 109.552 |  |  | 
23 | CC[C@H](C)[C@@H]1NC(=O)CCSSCCNC(=O)[C@H](CCCCNC(=O)c2cc(C)on2)NC(=O)c2cccc(c2)CNC1=O [I-B5-D1/3] | 104.965 |  |  | 
24 | CC(C)C[C@@H]1NC(=O)CCNC(=O)CCSSCCNC(=O)[C@H](CCCNC(=O)c2c[nH]c(=O)[nH]c2=O)NC1=O [B2-L-D2/11] | 112.783 |  |  | 
25 | CC[C@H](C)[C@@H]1NC(=O)c2ccc(cc2)CNC(=O)[C@@H](NC(=O)c2ccc(Cl)s2)CSSCCNC(=O)CNC1=O [C B3 I G] |  | 106.0 | 113.6 | 
26 | CC(C)[C@H]1NC(=O)CCSSCCNC(=O)c2cccc(c2)CNC(=O)[C@@H](CNC(=O)c2ccc(Cl)s2)NC1=O [X v D4 B5] |  | 103.4 | 104.1 | 
27 | O=C1CCSSCCNC(=O)[C@@H](Cc2c[nH]c3ccccc23)NC(=O)[C@@H](CNC(=O)c2ccc(Cl)s2)NC(=O)CCN1 [X B2 D4 w] |  | 88.8 | 91.0 | 
28 | O=C1CCSSCCNC(=O)[C@H](CCCNC(=O)c2ccco2)NC(=O)c2ccc(cc2)CNC(=O)[C@H](CO)N1 [S-B3-D2/16] | 114.086 |  |  | 
29 | CC[C@H](C)[C@@H]1NC(=O)CCNC(=O)[C@H](CCCNC(=O)c2ccc(OC)nc2)NC(=O)CCSSCCNC1=O [D2-B2-I/10] | 104.624 |  |  | 
30 | CC(C)[C@@H]1NC(=O)CCSSCCNC(=O)[C@@H]2CCCN2C(=O)[C@H](CCCCNC(=O)Cc2c[nH]c3ccccc23)NC1=O [v-D1-B1/12] ([Mpa]VK(X3)P-Cysteamide; disulfide 1-C) | 99.643 |  |  | 
31 | O=C(NCCC[C@@H]1NC(=O)[C@H](CO)NC(=O)[C@@H]2CCCN2C(=O)CCSSCCNC1=O)c1ccccc1 [B1-S-D2/1] ([Mpa]PS[Orn](Bz)-Cysteamide; disulfide 1-C) | 109.462 |  |  | 
32 | O=C1CCSSCCNC(=O)c2ccc(cc2)CNC(=O)[C@H](Cc2c[nH]c3ccccc23)NC(=O)[C@H](CCCNC(=O)c2c[nH]c(=O)[nH]c2=O)N1 [D2-W-B3/11] | 121.031 |  |  | 
33 | O=C(NCCC[C@@H]1NC(=O)[C@H](CO)NC(=O)[C@@H]2CCCN2C(=O)CCSSCCNC1=O)c1ccccc1 [B1-s-D2/1] ([Mpa]PS[Orn](Bz)-Cysteamide; disulfide 1-C) | 108.892 |  |  | 
34 | COc1ccc(C(=O)NCCCC[C@@H]2NC(=O)[C@H]3CCCN(C3)C(=O)[C@@H](CO)NC(=O)CCSSCCNC2=O)cn1 [s-B4-D1/10] | 109.656 |  |  | 
35 | NC(=O)CC[C@@H]1NC(=O)[C@H](CCCCNC(=O)COc2ccccc2)NC(=O)CCSSCCNC(=O)[C@@H]2CCCN2C1=O [D1-Q-B1/13] ([Mpa]K(Phenoxyacetyl)QP-Cysteamide; disulfide 1-C) | 104.037 |  |  | 
36 | NCCC[C@@H]1NC(=O)c2ccc(cc2)CNC(=O)[C@H](CO)NC(=O)CCSSCCNC1=O [S-B3-D2/-] | 119.352 |  |  | 
37 | CC(C)CC1NC(=O)C(CCCNC(=O)c2ccc(Cl)s2)NC(=O)C2(CC2)CNC(=O)CCSSCCNC1=O (stereo not shown) [X B6 D2 L] |  | 107.3 | 102.8 | 
38 | CC(C)CC(=O)NCCC[C@@H]1NC(=O)[C@H]2CCCN(C2)C(=O)[C@H](CC(C)C)NC(=O)CCSSCCNC1=O [L-B4-D2/8] | 106.945 |  |  | 
39 | O=C1CCSSCCNC(=O)C(Cc2ccc(O)cc2)NC(=O)C2CCCN(C2)C(=O)C(CCCCNC(=O)c2c[nH]c(=O)[nH]c2=O)N1 (stereo not shown) [D1-B4-y/11] | 105.223 |  |  | 
40 | CC[C@H](C)[C@@H]1NC(=O)[C@H](CCCNC(=O)c2cnccn2)NC(=O)CCSSCCNC(=O)CCNC1=O [D2-I-B2/2] | 113.295 |  |  | 
41 | CCC(C)C1NC(=O)C(CCCNC(=O)c2ccc(Cl)s2)NC(=O)CCSSCCNC(=O)C2CCCN2C1=O (stereo not shown) [X D2 I B1] ([Mpa][Orn](2Thenoyl(5-Cl))IP-Cysteamide; disulfide 1-C; configuration not given here) |  | 96.9 | 90.4 | 
